Measurements reported in patent publication US10472347B2, “Aminopyrazine compounds with A2A antagonist properties” (Merck Sharp & Dohme Corp., priority 2014, dated 2019).

Target: T1, human A2a receptor (Homo sapiens, UniProt P29274)
T1 construct: purchased Perkin-Elmer RBHA2AM400UA; host or cells: HEK293 cells (membranes)
Experiment: A2a competition binding assay, Scintillation Proximity technology
Details: membranes from HEK293 cells expressing human A2a receptor; for EC50: 0.5 nM tritiated ligand; for Ki: Ki by Cheng-Prusoff equation
Method: Binding affinities of compounds of the invention for the human A2a receptor were determined in a competition binding assay using Scintillation Proximity technology. Thus, […] from HEK293 cells expressing the human A2a receptor were incubated with a compound of the invention at concentrations ranging from 3000 nM to 0.15 nM in a reaction mixture containing also 0.5 nM of a tritiated form of 5-amino-7-[2-phenethyl]-2-(furan-2-yl)-7H-pyrazolo[4,3-e][1,2,4]triazolo[1,5-c]pyrimidine (the tritiated compound) and 100 μg of wheat germ agglutin-coated yttrium silicate SPA beads for one hour at room temperature with agitation. The beads were then allowed to settle to the bottom of the wells for 1 hr, after which the membrane-associated radioactivity was determined by scintillation counting in a TopCount microplate reader. Ki values were determined using the Cheng-Prusoff equation.
HEK293 cells expressing the human, rat, dog or monkey adenosine 2a receptor (Purchased from Perkin-Elmer # RBHA2AM400UA).
The Tritiated compound was prepared in-house by MRL Radiochemistry according to published methods.
Wheat germ agglutinin-coated yttrium silicate SPA beads (GE Healthcare #RPNQ0023). Dilute to 25 mg/ml in assay buffer.
Assay Buffer was prepared in house: Dulbecco's calcium and magnesium free phosphate buffered saline+10 mM MgCl2
Adenosine deaminase from calf intestine, 10 mg/2 ml (Roche #10 102 105 001).
A2a antagonist standard (9-chloro-1-(2-furanyl)-[1,2,4]triazolo1,5-c]quinazolin-5-amine from Tocris Bioscience)
Make eight 1:3 serial dilutions in 100% DMSO from a 3 mM compound stock
Transfer 50 nl of compound into a 384-well OptiPlate (Perkin Elmer).
Typically, final concentrations of compound used in the assay ranged from 3000 nM to 0.152 nM.
Dilute a solution of the Tritiated compound to 1.25 nM in assay buffer. This is a 2.5× solution. The final concentration in the assay is 0.5 nM. Calculate the concentration by counting two 5 μl aliquots.
Use 0.25 ug of membrane/well. Dilute membranes to 9.7 μg/ml in assay buffer. Treat with 20 ug/ml adenosine deaminase (ADA) for 15 minutes at room temperature to degrade endogenous adenosine.
Use 100 μg/well wheat germ agglutinin-coated yttrium silicate SPA beads.
Mix ADA-treated membranes and SPA beads together for 30 min prior to assay.
To the Perkin-Elmer Optiplate-384 containing the compound titration add 20 μl of 2.5× solution of the Tritiated compound and 30 μl of the membrane-bead mixture. Incubate for one hour at room temperature with agitation.
Include total binding (assay buffer+1% DMSO) and non-specific binding (CGS15943, 1 μM) wells.
Allow the beads to settle for one hour.
A curve fitting program (i.e., Prism, Activity Base, Chemcart) is used to determine the EC50. The Ki value is calculated using the Cheng-Prusoff equation. Ki=EC50/(1+(radioligand concentration/Kd))

T1 sequence (P29274 whole entry): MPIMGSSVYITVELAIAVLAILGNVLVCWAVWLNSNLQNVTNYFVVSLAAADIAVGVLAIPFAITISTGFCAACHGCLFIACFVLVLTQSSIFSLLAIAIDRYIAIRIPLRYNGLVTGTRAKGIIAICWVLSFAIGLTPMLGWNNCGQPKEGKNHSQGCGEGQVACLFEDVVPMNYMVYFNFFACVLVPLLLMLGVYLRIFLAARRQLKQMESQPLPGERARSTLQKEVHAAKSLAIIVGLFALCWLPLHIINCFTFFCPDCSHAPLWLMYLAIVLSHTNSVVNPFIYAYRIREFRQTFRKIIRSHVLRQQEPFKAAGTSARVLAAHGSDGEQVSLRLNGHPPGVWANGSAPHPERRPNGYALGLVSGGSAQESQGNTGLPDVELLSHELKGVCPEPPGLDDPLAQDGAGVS

Compound | EC50 | Ki
Cc1cccnc1CNC(=O)c1nc(C)c(-c2ncco2)nc1N [Ex-3, 3-amino-6-methyl-N-((3-methylpyridin-2-yl)methyl)-5-(oxazol-2-yl)pyrazine-2-carboxamide] | 3.4 nM | 
Cc1cccnc1CNC(=O)c1nc(C)c(-c2ncco2)nc1N [Ex-5, 3-amino-6-methyl-N-[(3-methylpyridin-2-yl)methyl]-5-(1,3-oxazol-2-yl)pyrazine-2-carboxamide] | 4.7 nM | 0.199 nM
Cc1nc(C(=O)NCc2ncccc2C2CC2)c(N)nc1-c1ncco1 [Ex-6, 3-amino-N-[(3-cyclopropylpyridin-2-yl)methyl]-6-methyl-5-(1,3-oxazol-2-yl)pyrazine-2-carboxamide] | 5.9 nM | 0.224 nM
Cc1nc(C(=O)N[C@@H]2CCc3cccnc32)c(N)nc1-c1ncco1 [Ex-7A, (R)-3-amino-N-(6,7-dihydro-5H-cyclopenta[b]pyridin-7-yl)-6-methyl-5-(1,3-oxazol-2-yl)pyrazine-2-carboxamide] |  | 5.18 nM
Cc1nc(C(=O)NCc2cccc3cccnc23)c(N)nc1-c1ncco1 [Ex-9, 3-amino-6-methyl-5-(1,3-oxazol-2-yl)-N-(quinolin-8-ylmethyl)pyrazine-2-carboxamide] | 2.1 nM | 0.64 nM
Cc1cccc(CNC(=O)c2nc(C)c(-c3ncco3)nc2N)n1 [Ex-10, 3-amino-6-methyl-N-[(6-methylpyridin-2-yl)methyl]-5-(1,3-oxazol-2-yl)pyrazine-2-carboxamide] | 1.2 nM | 0.573 nM
Cc1nc(C(=O)NCc2c(F)cccc2F)c(N)nc1-c1ncco1 [Ex-11, 3-amino-N-(2,6-difluorobenzyl)-6-methyl-5-(1,3-oxazol-2-yl)pyrazine-2-carboxamide] |  | 0.125 nM
Cc1nc(C(=O)NCc2ncc[nH]2)c(N)nc1-c1ncco1 [Ex-16, 3-amino-N-(1H-imidazol-2-ylmethyl)-6-methyl-5-(1,3-oxazol-2-yl)pyrazine-2-carboxamide] |  | 5.14 nM
Cc1nc(C(=O)NCc2cncs2)c(N)nc1-c1ncco1 [Ex-17, 3-amino-6-methyl-5-(1,3-oxazol-2-yl)-N-(1,3-thiazol-5-ylmethyl)pyrazine-2-carboxamide] |  | 17.3 nM
Cc1nc(C(=O)NCc2ncccc2C(F)(F)F)c(N)nc1-c1ncco1 [Ex-18, 3-amino-6-methyl-5-(1,3-oxazol-2-yl)-N-{[3-(trifluoromethyl)pyridin-2-yl]methyl}pyrazin-2-carboxamide] |  | 0.151 nM

Other lines, results leading:

EC50 | Ki | Compound
4.6 nM |  | Cc1nc(C(=O)NCc2ncccc2C2CC2)c(N)nc1-c1ncco1 [Ex-4, 3-amino-N-((3-cyclopropylpyridin-2-yl)methyl)-6-methyl-5-(oxazol-2-yl)pyrazine-2-carboxamide]
 | 0.387 nM | Cc1nc(C(=O)N[C@H]2CCc3cccnc32)c(N)nc1-c1ncco1 [Ex-7B, (S)-3-amino-N-(6,7-dihydro-5H-cyclopenta[b]pyridin-7-yl)-6-methyl-5-(1,3-oxazol-2-yl)pyrazine-2-carboxamide]
 | 9.82 nM | Cc1nc(C(=O)NCc2ccno2)c(N)nc1-c1ncco1 [Ex-12, 3-amino-N-(isoxazol-5-ylmethyl)-6-methyl-5-(1,3-oxazol-2-yl)pyrazine-2-carboxamide]
 | 6.06 nM | Cc1nc(C(=O)NCc2ncco2)c(N)nc1-c1ncco1 [Ex-13, 3-amino-6-methyl-5-(1,3-oxazol-2-yl)-N-(1,3-oxazol-2-ylmethyl)pyrazine-2-carboxamide]
 | 2.12 nM | Cc1c[nH]c(CNC(=O)c2nc(C)c(-c3ncco3)nc2N)n1 [Ex-14, 3-amino-6-methyl-N-[(4-methyl-1H-imidazol-2-yl)methyl]-5-(1,3-oxazol-2-yl)pyrazine-2-carboxamide]
 | 1.25 nM | Cc1nc(C(=O)NCc2nccn2C)c(N)nc1-c1ncco1 [Ex-15, 3-amino-6-methyl-N-[(1-methyl-1H-imidazol-2-yl)methyl]-5-(1,3-oxazol-2-yl)pyrazine-2-carboxamide]
 | 2.76 nM | Cc1nc(C(=O)NCc2ncccn2)c(N)nc1-c1ncco1 [Ex-19, 3-amino-6-methyl-5-(1,3-oxazol-2-yl)-N-(pyrimidin-2-ylmethyl)pyrazine-2-carboxamide]
